According to PubChem BioAssay (NCI):
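All cell lines were grown in 96-well plates and treated with compound for 48 hours. At the GI50, growth is halved. At the TGI there is no net growth.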

Experiments:
Assay in all cases: inhibition of tumour cell growth, NCI panel, 48 h
OVCAR-4 ovarian = tested on: OVCAR-4 ovarian
NCI-H23 lung = tested on: NCI-H23 lung
A498 renal = tested on: A498 renal
KM12 colon = tested on: KM12 colon
TK-10 renal = tested on: TK-10 renal
NCI-H226 lung = tested on: NCI-H226 lung
UACC-62 melanoma = tested on: UACC-62 melanoma
MDA-MB-231 breast = tested on: MDA-MB-231 breast
HCT-116 colon = tested on: HCT-116 colon
SR leukemia = tested on: SR leukemia

| Compound | GI50 (OVCAR-4 ovarian) | TGI (OVCAR-4 ovarian) | GI50 (NCI-H23 lung) | TGI (NCI-H23 lung) | GI50 (A498 renal) | TGI (A498 renal) | GI50 (KM12 colon) | TGI (KM12 colon) | GI50 (TK-10 renal) | TGI (TK-10 renal) | GI50 (NCI-H226 lung) | TGI (NCI-H226 lung) | GI50 (UACC-62 melanoma) | TGI (UACC-62 melanoma) | GI50 (MDA-MB-231 breast) | TGI (MDA-MB-231 breast) | GI50 (HCT-116 colon) | TGI (HCT-116 colon) | GI50 (SR leukemia) | TGI (SR leukemia) |
| --- | --- | --- | --- | --- | --- | --- | --- | --- | --- | --- | --- | --- | --- | --- | --- | --- | --- | --- | --- | --- |
| CCN1CCN(CCNc2nccc(-c3c(-c4ccc(F)c(O)c4)nc4occn34)n2)S1(=O)=O | 4.59 µM | > 100 µM | 4.12 µM | > 100 µM | 5.15 µM | > 100 µM | 3.72 µM | > 100 µM | 35.6 µM | > 100 µM | 3.8 µM | > 100 µM | 1.5 µM | 6.56 µM | 32.3 µM | > 100 µM | 3.76 µM | > 100 µM | 7.46 µM | > 100 µM |
| NCCCCC(NC(=O)C(N)CCCN=C(N)N)C(=O)NC(CCCCN)C(=O)NC(CCCN=C(N)N)C(=O)NC(CCCN=C(N)N)C(=O)NC(CCC(N)=O)C(=O)NC(CCCN=C(N)N)C(=O)NC(CCCN=C(N)N)C(=O)NC(CCCN=C(N)N)C(=O)NCC(=O)NCC(=O)O (stereo not given) | > 50 µM | > 50 µM | > 50 µM | > 50 µM | > 50 µM | > 50 µM | > 50 µM | > 50 µM | > 50 µM | > 50 µM | > 50 µM | > 50 µM | > 50 µM | > 50 µM | > 50 µM | > 50 µM | > 50 µM | > 50 µM | > 50 µM | > 50 µM |
| COc1cc(-n2ccnc2-c2ccc3ccccc3c2)cc(OC)c1OC | 6.32 µM | > 86.2 µM | 0.223 µM | 13.4 µM | 0.0451 µM | 1.42 µM | < 0.0198 µM | 18.9 µM | 0.936 µM | 45.2 µM | 5.7 µM | > 53.7 µM | 0.0657 µM | 15.4 µM | 0.571 µM | 44.1 µM | 0.0382 µM | 15.3 µM | < 0.0188 µM | > 43.4 µM |
| CCSC[C@@H]1C[C@](O)(c2ccc(Cl)cc2)[C@@H](c2ccc(Cl)cc2)O1 | 16.7 µM | 32.1 µM | 19.3 µM | 41.6 µM | 17.8 µM | 32.1 µM | 15.4 µM | 30.9 µM | 17.8 µM | 36.3 µM | 17.8 µM | 37.3 µM | 13.9 µM | 30.8 µM | 18.2 µM | 35.4 µM | 12.6 µM | 25.1 µM | 11.1 µM | 28.2 µM |
| COc1cc(-c2nn(-c3cccc(NC(=O)Nc4ccc(Cl)c(C(F)(F)F)c4)c3)cc2-c2ccncc2)ccc1Cl | 1.29 µM | 25.6 µM | 1.13 µM | 8.02 µM | 0.837 µM | 6.97 µM | 1.06 µM | 3.91 µM | 1.51 µM | 13.5 µM | 1.82 µM | > 32.5 µM | 0.738 µM | 2.09 µM | 0.76 µM | 2.6 µM | 1.17 µM | 4.56 µM | 0.884 µM | 2.48 µM |
| Cc1c(Cn2c(C)nc3c(C(=O)O)cc(N4CCOCC4)cc32)cccc1C(F)(F)F | 42.4 µM | > 100 µM | 81.5 µM | > 100 µM | 0.0339 µM | 0.319 µM | 56.7 µM | > 100 µM | 34 µM | > 100 µM | 67.2 µM | > 100 µM | 21.1 µM | > 100 µM | > 100 µM | > 100 µM | 42.1 µM | > 100 µM | 51.3 µM | > 100 µM |
